Results taken from patent publication US20030022878A1, “TELOMERASE INHIBITOR” (priority 1997, published 2003).
Where “and” joins values, the source holds several entries; their conditions need not be identical. Equal values may be shown once.

Tests used:
malignant melanoma cells = conditions: oral administration; cited from earlier work
telomerase = biological target: T1, telomerase (Homo sapiens, UniProt O14746); assay: Telomerase inhibiting activity in cell-free system (TRAP method); format: biochemical
T1 construct: the resulting extract was centrifuged to obtain the supernatant as a cell extract for activity measurement; endogenous in cells
Experimental: Telomerase inhibiting activity of EGCG, EGC, ECG, and EC (all products of Sigma) was measured according to the Telomeric Repeat Amplification Protocol (TRAP) method described by Kim et al. (Kim, N. W. et al., Science, 266, 2011-2015, 1994) as follows:
Cells were washed with ice-cold PBS (phosphate buffered saline) and suspended again in PBS to count the cells. After centrifuging this cell suspension, the resulting cell mass was suspended in a TRAP assay buffer (10 mM Tris-HCl, pH 7.5, 1 mM MgCl2, 1 mM EDTA, 0.5% CHAPS, 10% glycerine, 5 mM 2-mercaptoethanol, and 0.1 mM 4-(2-aminoethyl)-benzenesulfonyl fluoride hydrochlorine), then the suspension was quick-frozen with liquid nitrogen. After melting, the suspension was allowed to stand in an ice bath for 30 minutes for extraction, then the resulting extract was centrifuged to obtain the supernatant as a cell extract for activity measurement. […]
The PCR products obtained in the abovementioned procedure were resolved by polyacrylamide gel electrophoresis and the resulting DNA bands stained with SYBR Green (Takara Shuzo) were detected by irradiation with a UV transilluminator.
The detected bands were photographed. The intensity of each band was quantitatively analyzed using the NIH Image 1.60 software program. Telomerase activity was expressed as the intensity of a sample band relative to that of the band corresponding to the ITAS fragment (control).
Telomerase activity in reaction solutions of 8 different EGCG concentrations ranging from 0.1 to 20 μM was measured in the same manner as described in Example 1 except that a primer, PS, was used at two different concentrations. […]
Telomerase activity in reaction solutions containing powder sample 1 obtained in Production Example 1, powder sample 2 (a tea catechin extract: THEA-FLAN 90S, a trade name, a product of ITO EN, Ltd), and EGCG at different concentrations in the following ranges was measured in the same manner as described in Example 1. […]

HT29 cells [1] = assay: TRF (telomere) length by Southern blotting; format: cell-based; conditions: HT29 cells in crisis, 15 μM EGCG
Experimental: HT 29 cells from PD57 to PD60 in cell crisis were pooled and the genomic DNA was prepared by a salting-out/ethanol precipitation method (Stratagene). Further, integrity of the isolated genomic DNA was confirmed by gel electrophoresis (ethidium bromide staining).
The isolated genomic DNA (10 μg) was digested with HinfI and RsaI and the resulting digests were subjected to Southern blotting by the ordinary method, after which DNA fragments were detected using a TeloQuant assay kit (PharmMingen).
Accordingly, if a genomic DNA is digested with the abovementioned restriction enzymes, only the telomere region would remain undigested. This DNA fragment is called the Terminal Restriction Fragment (TRF) which can be detected by Southern blotting to analyze telomere lengths. TRFs of EGCG-treated or untreated HT29 cells obtained as mentioned above were detected using a TeloQuant assay kit. […] It was observed that TRFs in the cells which entered crisis due to the EGCG treatment (●) were shortened by about 1.1 kb as compared to those in the untreated cells (◯). Further, it was confirmed that successive EGCG treatment of HT29 cells caused telomere diminishment.

[2] = tested on: experimentally-induced tumors; conditions: nude mice with experimentally-induced tumors; cited from earlier work
[3] = biological target: T2, intracellular telomerase activity, monoblastoid leukemia U937 cells (Homo sapiens, UniProt O14746); assay: Telomerase inhibiting activity in cells (Streptolysin O permeabilization, TRAP); format: cell-based; conditions: 15 μM EGCG for 2 hours
T2 construct: endogenous in cells; host or cells: U937
Experimental: (§1) The telomerase inhibiting activity of EGCG was assayed in monoblastoid leukemia U937 cells (American Type Culture Collection, ATCC) and colon adenocarcinoma HT29 cells.
(§2) An RPMI1640 medium (Nissui) supplemented with 10% fetal bovine serum (FBS) was used for U937 cells, and an RPMI1640 medium supplemented with 5% FBS and 5% fetal calf serum (FCS) was used for HT29 cells.
(§3) The cells were incubated in a 15 μM EGCG solution for 2 hours and washed in PBS. The washed cells were suspended in an RPMI1640 medium (without serum) at a concentration of 2×10^6 cells/ml, then Streptolysin O (Sigma, 5 U/ml), TS primer (10 μM), spermidine (1 mM), and Imipramine (50 μM) were added, and the admixture was incubated at room temperature for 10 minutes. Streptolysin O is a substance which increases the permeability of a substance through the cell membrane, and enables the TS primers and other substances to be incorporated into the cell. […]
(§4) The telomerase products thus obtained were resolved by polyacrylamide gel electrophoresis, after which DNA bands were stained with SYBR Green (Takara Shuzo) and detected by irradiation with a UV transilluminator. The intensity of each band was quantitatively analyzed using the NIH Image 1.60 software program and telomerase activity was expressed as the intensity of a sample band relative to that of the band corresponding to the ITAS fragment (control). […]

[4] = biological target: T3, intracellular telomerase activity, colon adenocarcinoma HT29 cells (Homo sapiens, UniProt O14746); assay: as above; format: cell-based; conditions: 15 μM EGCG for 2 hours
T3 construct: endogenous in cells; host or cells: HT29
Experimental: as §1, §2, §3, §4

HT29 cells [5] = assay: Effect of EGCG on cell growth in subculture; format: cell-based; conditions: HT29 subculture lines, medium with 15 μM EGCG
Experimental: (§5) U937 cells and HT29 cells were each subcultured on a medium with and without EGCG to study the effect of addition of EGCG on cell growth. The medium used was the same as used in Example 4. Five subculture lines for U937 cells and nine subculture lines for HT29 cells were prepared. The first culture of each line was made by inoculating cells of each stock culture at a density of 5×10^5 cells per 10-cm dish. For each subculture, two lines were cultured on a medium without EGCG (control lines) and the rest of the lines were cultured on a medium supplemented with 15 μM EGCG. Cells were passaged, sampled and counted every four days. The incubation medium was freshly changed every day. […] PD is the number of cycles in which the cell population doubles during cell growth and is calculated by monitoring cell counts using a hemocytometer.

U937 cells = assay: Effect of EGCG on cell growth in subculture; format: cell-based; conditions: U937 subculture lines, medium with 15 μM EGCG
Experimental: as §5

telomerase, U937 cells = biological target: T4, telomerase, U937 cells (Homo sapiens, UniProt O14746); assay: Telomerase activity in extract of EGCG-treated cells (mechanism); format: cell-based; conditions: 15 μM EGCG for 2 hours, washed, extracted
T4 construct: endogenous in cells; host or cells: U937
Experimental: (§6) The cells were treated with 15 μM EGCG for 2 hours and washed with ice-cold PBS. The cell mass obtained by centrifugation was suspended in a TRAP assay buffer and the resulting suspension was quick-frozen with liquid nitrogen. After melting, the suspension was allowed to stand in an ice bath for 30 minutes, then the resulting extract was centrifuged to obtain the supernatant as a cell extract. A test compound, TS primer (50 ng), 50 μM dNTPs, and T4g32 protein (Behringer-Manheim) were added to a specified volume of the cell extract (corresponding to 200 to 1000 cells), and the admixture was incubated at 20° C. for 30 minutes. After reaction, CX primer (100 ng) was added to the reaction solution, then PCR was performed in the presence of Gene Taq DNA polymerase (2 U) and ITAS (10^−18 g), i.e., (94° C., 40 seconds→50° C., 40 seconds→72° C., 60 seconds)×30 cycles→72° C., 2 minutes, to obtain PCR products. The PCR products thus obtained were resolved by polyacrylamide gel electrophoresis and the resulting DNA bands stained with SYBR Green (Takara Shuzo) were detected by irradiation with a UV transilluminator. The intensity of each band was quantitatively analyzed using the NIH Image 1.60 software program. Telomerase activity was expressed as the intensity of a sample band relative to that of the band corresponding to the ITAS fragment. […]

telomerase, HT29 cells = biological target: T5, telomerase, HT29 cells (Homo sapiens, UniProt O14746); assay: as above; format: cell-based; conditions: 15 μM EGCG for 2 hours, washed, extracted
T5 construct: endogenous in cells; host or cells: HT29
Experimental: as §6

T1 sequence (O14746 whole entry): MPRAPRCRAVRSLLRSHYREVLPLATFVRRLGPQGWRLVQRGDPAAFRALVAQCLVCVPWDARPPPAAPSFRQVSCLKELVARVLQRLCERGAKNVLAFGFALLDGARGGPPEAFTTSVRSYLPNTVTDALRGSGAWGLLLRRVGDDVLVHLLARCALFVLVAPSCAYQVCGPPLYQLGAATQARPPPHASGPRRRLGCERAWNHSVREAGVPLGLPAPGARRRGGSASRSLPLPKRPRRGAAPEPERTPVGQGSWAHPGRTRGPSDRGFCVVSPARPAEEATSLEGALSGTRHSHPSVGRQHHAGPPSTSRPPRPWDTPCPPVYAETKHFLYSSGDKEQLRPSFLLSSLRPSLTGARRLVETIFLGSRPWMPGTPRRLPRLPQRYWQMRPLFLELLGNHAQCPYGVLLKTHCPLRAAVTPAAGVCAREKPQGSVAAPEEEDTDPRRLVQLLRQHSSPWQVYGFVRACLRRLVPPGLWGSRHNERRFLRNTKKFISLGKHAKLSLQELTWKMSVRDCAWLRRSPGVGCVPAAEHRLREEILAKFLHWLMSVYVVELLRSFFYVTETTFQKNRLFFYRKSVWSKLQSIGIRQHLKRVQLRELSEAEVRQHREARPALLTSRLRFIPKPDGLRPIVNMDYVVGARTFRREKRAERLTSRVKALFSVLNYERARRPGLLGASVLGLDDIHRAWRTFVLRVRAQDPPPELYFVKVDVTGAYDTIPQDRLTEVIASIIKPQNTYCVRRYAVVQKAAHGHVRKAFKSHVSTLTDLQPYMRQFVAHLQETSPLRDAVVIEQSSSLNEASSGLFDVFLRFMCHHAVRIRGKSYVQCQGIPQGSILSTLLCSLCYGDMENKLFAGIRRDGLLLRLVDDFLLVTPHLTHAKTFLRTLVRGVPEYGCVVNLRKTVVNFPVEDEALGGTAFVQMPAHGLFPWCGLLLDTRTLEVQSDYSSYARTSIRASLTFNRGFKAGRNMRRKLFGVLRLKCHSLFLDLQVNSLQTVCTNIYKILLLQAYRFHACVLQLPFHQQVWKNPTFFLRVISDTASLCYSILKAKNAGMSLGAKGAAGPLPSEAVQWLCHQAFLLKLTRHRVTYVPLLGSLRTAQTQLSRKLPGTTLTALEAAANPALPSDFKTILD
T3 sequence (O14746 whole entry): as above
T2 sequence (O14746 whole entry): as above
T5 sequence (O14746 whole entry): as above
T4 sequence (O14746 whole entry): as above

In the case of (−) epigallocatechin gallate [EGCG], the “metastasis of malignant melanoma cells” value (malignant melanoma cells) is listed as “suppressed”, the Ki (telomerase; Dixon plot, EGCG 0.1 to 20 μM, primer at two concentrations) is listed as roughly 100 nM and the “telomerase inhibiting activity compared among catechins (FIG. 1)” value (telomerase; TRAP, cell extract) is listed as “highest inhibiting activity”. For the same substance, the “Telomerase inhibition, IC50” value (telomerase; concentration suppressing DNA amplification of control by 50%, samples tested in μg/ml ranges) was 0.25, the “shortening of TRFs compared to untreated cells” value (HT29 cells [1]) was “about 1.1 kb” and the “cancer cell growth in nude mice” value [2] was “effectively suppressed”. For the same substance, the intracellular telomerase activity [3] was “markedly inhibited”, the intracellular telomerase activity [4] was “markedly inhibited” and the “day at which cells entered cell crisis” value (HT29 cells [5]) was 75 days and 57 days. For the same substance, the “day at which cells entered cell crisis” value (U937 cells) was 53 days and 44 days and 29 days, the “telomerase activity tested in vitro in extract after treatment of cells” value (telomerase, U937 cells) was “no effect” and the “telomerase activity tested in vitro in extract after treatment of cells” value (telomerase, HT29 cells) was “no effect”.
